Experimental data from BindingDB's records for patent US20250091994 (Kobe University, 2025).

Biological target: GTPase HRas [G12V] (Homo sapiens, UniProt P01112, G12V)
Test: In Vitro Ras-Raf Binding Inhibitory Activity Assay
Experimental: The in vitro Ras-Raf binding inhibitory activity of the compound of the present invention was evaluated by an ELISA method described below. GST-c-Raf-1 RBD diluted with a Ras-Raf binding buffer (50 mM Tris-HCl pH7.4, 150 mM NaCl, 5 mM MgCl2, 1 mM EDTA, and 1% Triton-X100) was added to each well of a glutathione-coated 96-well plate (Thermo Fisher Scientific.), and was incubated at 30° C. for 1 hour, to immobilize Raf on the well. The unbound free Raf was eliminated by washing the well with the Ras-Raf binding buffer three times. Subsequently, GTPTS-bound HRasG12V diluted with the Ras-Raf binding buffer and each compound solution (final DMSO concentration: 10%) were applied to each well, and the resulting mixture was then incubated at 30° C. for 1 hour, so that Ras and Raf were allowed to bind to each other. Thereafter, the plate was washed with the Ras-Raf binding buffer twice, and was then subjected to a blocking treatment at room temperature for 20 minutes, using TBS-Tween {10 mM Tris-HCl pH 7.4, 150 mM NaCl, and 0.05% (w/v) Tween-20}-5% (w/v) bovine serum albumin (BSA). After that, an anti-HRas antibody (C-20, Santa Cruz) or an anti-HRas antibody (259, Santa Cruz), which had been 1000 times diluted with TBS-Tween-5% BSA, was added to the reaction mixture, and incubated at room temperature for 1 hours. After the treatment with the primary antibody, the plate was washed with TBS-Tween-5% BSA three times, and a horseradish peroxidase-labeled secondary antibody against rabbit immunoglobulin G (GE Healthcare) of 1000 times diluted with TBS-Tween-5% BSA, was added to the plate, followed by incubation at room temperature for 1 hour. After the treatment with the secondary antibody, the plate was washed with TBS-Tween-5% BSA three times, and a substrate solution (TMB) was then added to the plate, followed by incubation at room temperature for 15 minutes for coloration. Finally, 2 M H2SO4 was added to stop color development (coloration reaction kit: Nacalai Tesque).

GTPase HRas [G12V], sequence (P01112 whole entry G12V, looked up): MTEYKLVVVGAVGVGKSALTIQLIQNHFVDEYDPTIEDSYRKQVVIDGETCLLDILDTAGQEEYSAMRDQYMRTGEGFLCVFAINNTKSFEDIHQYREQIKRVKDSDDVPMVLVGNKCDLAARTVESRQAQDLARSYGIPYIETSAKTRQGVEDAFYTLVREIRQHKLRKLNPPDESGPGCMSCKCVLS

SMILES | IC50
COc1cc(/C=C2/C(=O)c3ccccc3N2C(C)=O)ccc1OCC(N)=O [US20250091994, Example 1] | 6900 nM
COc1cc(/C=C2/C(=O)c3ccccc3N2C(C)=O)ccc1OCC(=O)N1CCOCC1 [US20250091994, Example 2] | 7900 nM
CCOc1cc(/C=C2/C(=O)c3ccccc3N2C(C)=O)ccc1OCC(N)=O [US20250091994, Example 13] | 2500 nM
COc1cc(/C=C2/C(=O)c3ccccc3N2C(C)=O)ccc1OCC(=O)N1CCCC1 [US20250091994, Example 14] | 5700 nM
COc1cc(/C=C2/C(=O)c3ccccc3N2C(C)=O)ccc1OCC(=O)Nc1ccccc1 [US20250091994, Example 15] | 7300 nM
CC(=O)N1C(=Cc2ccc(OCC(N)=O)c(Cl)c2)C(=O)c2ccccc21 [US20250091994, Example 17] | 9600 nM
COc1cc(/C=C2/C(=O)c3ccccc3N2C(C)=O)ccc1/C=C/C(N)=O [US20250091994, Example 20] | 10000 nM
COc1cc(/C=C2/C(=O)c3ccccc3N2C(C)=O)ccc1OS(C)(=O)=O [US20250091994, Example 21] | 7200 nM
CC(=O)N1/C(=C\c2ccc(OCC(=O)N3CCOCC3)cn2)C(=O)c2ccccc21 [US20250091994, Example 22] | 13000 nM
COc1cc(/C=C2/C(=O)c3ccccc3N2C(C)=O)ccc1OCS(C)(=O)=O [US20250091994, Example 24] | 2100 nM
COc1cc(/C=C2/C(=O)c3ccccc3N2C(C)=O)ccc1OC[S+](C)[O-] (configuration not stated) [US20250091994, Example 25] | 5900 nM
COc1cc(/C=C2/C(=O)c3ccccc3N2C(C)=O)ccc1NC(=O)CN1CCOCC1 [US20250091994, Example 27] | 2700 nM
CC(=O)N1C(=Cc2ccc3cc(C(=O)N4CCOCC4)ccc3n2)C(=O)c2ccccc21 [US20250091994, Example 28] | 880 nM
CC(=O)N1C(=Cc2ccc(OCC(=O)N3CCOCC3)c(-c3ccccc3)c2)C(=O)c2ccccc21 [US20250091994, Example 29] | 13000 nM
COc1cc(/C=C2/C(=O)c3ccccc3N2C(C)=O)ccc1CCC(N)=O [US20250091994, Example 31] | 13000 nM
CC(=O)N1/C(=C\c2ccc3cc(C#N)ccc3n2)C(=O)c2ccccc21 [US20250091994, Example 34] | 2800 nM
CC(=O)N1/C(=C\c2ncc(C(=O)N3CCOCC3)s2)C(=O)c2ccccc21 [US20250091994, Example 38] | 3700 nM
CC(=O)N1/C(=C\c2ccc3cc(C(=O)N4CCN(C5COC5)CC4)ccc3n2)C(=O)c2ccccc21 [US20250091994, Example 41] | 4700 nM
COCC(O)CN1CCN(C(=O)c2ccc3nc(/C=C4/C(=O)c5ccccc5N4C(C)=O)ccc3c2)CC1 (configuration not stated) [US20250091994, Example 42] | 2800 nM

SMILES | IC50
CC(=O)N1/C(=C/c2nc3ccc(/C=C/S(=O)(=O)N4CCOCC4)cc3s2)C(=O)c2ccccc21 [US20250091994, Example 43] | 7100 nM
CC(=O)N1/C(=C\c2ccc3cc(C(=O)N4CC(C)OC(C)C4)ccc3n2)C(=O)c2ccccc21 (configuration not stated) [US20250091994, Example 44] | 960 nM
CC(=O)N1/C(=C\c2ccc3cc(CCC(=O)N4CCOCC4)ccc3n2)C(=O)c2ccccc21 [US20250091994, Example 45] | 1200 nM
CC(=O)N1/C(=C/c2nc3cc(C(=O)N4CCOCC4)ccc3s2)C(=O)c2ccccc21 [US20250091994, Example 48] | 3500 nM
COc1cc(/C=C2/C(=O)c3ccccc3N2C(=O)c2ccccc2)ccc1OCC(N)=O [US20250091994, Example 49] | 13000 nM
COc1cc(/C=C2/C(=O)c3cc(F)ccc3N2C(C)=O)ccc1OCC(=O)N1CCOCC1 [US20250091994, Example 50] | 12000 nM
COc1cc(/C=C2/C(=O)c3cccnc3N2C(C)=O)ccc1OCC(=O)N1CCOCC1 [US20250091994, Example 51] | 2100 nM
CC(=O)N1/C(=C/c2nc(C(=O)N3CCOCC3)cs2)C(=O)c2ccccc21 [US20250091994, Example 55] | 6400 nM
CC(=O)N1/C(=C/c2nc3ccc(CNS(C)(=O)=O)cc3s2)C(=O)c2ccccc21 [US20250091994, Example 56] | 570 nM
CC(=O)N1/C(=C/c2nc3ccc(C(=O)N4CCOCC4)cc3s2)C(=O)c2ccccc21 [US20250091994, Example 58] | 700 nM
CC(=O)N1/C(=C\c2nc3ccc(C(=O)N4CCOCC4)cc3s2)C(=O)c2ccccc21 [US20250091994, Example 59] | 4000 nM
CC(=O)N1C(=Cc2ccc3ccc(C(=O)N4CCOCC4)cc3n2)C(=O)c2ccccc21 [US20250091994, Example 62] | 5600 nM
CC(=O)NCc1ccc2nc(/C=C3/C(=O)c4ccccc4N3C(C)=O)ccc2c1 [US20250091994, Example 63] | 2000 nM
CC(=O)N1C(=Cc2ccc3cc(CNS(C)(=O)=O)ccc3n2)C(=O)c2ccccc21 [US20250091994, Example 64] | 1100 nM
CC(=O)N1/C(=C\c2ccc3cc(OCC(=O)N4CCOCC4)ccc3n2)C(=O)c2ccccc21 [US20250091994, Example 65] | 2400 nM
CC(=O)N1C(=Cc2ccc3cc(C(=O)N4CCOCC4)ccc3c2)C(=O)c2ccccc21 [US20250091994, Example 66] | 2300 nM
CC(=O)N1C(=Cc2ccc(C(=O)N3CCOCC3)cc2)C(=O)c2ccccc21 [US20250091994, Example 67] | 5600 nM
CC(=O)N1/C(=C/c2ncc(C(=O)N3CCOCC3)s2)C(=O)c2ccccc21 [US20250091994, Example 68] | 2300 nM
CC(=O)N1/C(=C\c2ccc3cc(CN(C(C)=O)C4CCOCC4)ccc3n2)C(=O)c2ccccc21 [US20250091994, Example 75] | 2100 nM

SMILES | IC50
CC(=O)N1/C(=C\c2ccc3cc(CN(C4CCOCC4)S(C)(=O)=O)ccc3n2)C(=O)c2ccccc21 [US20250091994, Example 76] | 1600 nM
CC(=O)N1C(=Cc2ccc3cc(/C=C/C(=O)NC4CCN(C5COC5)CC4)ccc3n2)C(=O)c2ccccc21 [US20250091994, Example 79] | 1100 nM
CC(=O)N1/C(=C\c2ccc3cc(CNC(=O)CN4CCOCC4)ccc3n2)C(=O)c2ccccc21 [US20250091994, Example 80] | 900 nM
CC(=O)N1/C(=C\c2cc(N=[N+]=[N-])c3cc(C(=O)N4CCOCC4)ccc3n2)C(=O)c2ccccc21 [US20250091994, Example 81] | 1100 nM
CC(=O)N1/C(=C\c2cc(Cl)c3cc(C(=O)N4CCOCC4)ccc3n2)C(=O)c2ccccc21 [US20250091994, Example 82] | 610 nM
CC(=O)N1C(=Cc2cc(-c3ccccc3)c3cc(C(=O)N4CCOCC4)ccc3n2)C(=O)c2ccccc21 [US20250091994, Example 83] | 840 nM
CCCCOc1cc(/C=C2/C(=O)c3ccccc3N2C(C)=O)nc2ccc(C(=O)N3CCOCC3)cc12 [US20250091994, Example 84] | 580 nM
CC(=O)N1/C(=C\c2cc(-c3cccnc3)c3cc(C(=O)N4CCOCC4)ccc3n2)C(=O)c2ccccc21 [US20250091994, Example 85] | 580 nM
CC(=O)N1/C(=C\c2cc(C#N)c3cc(C(=O)N4CCOCC4)ccc3n2)C(=O)c2ccccc21 [US20250091994, Example 86] | 1800 nM
CC(=O)N1/C(=C\c2cc(N3CCC(C#N)CC3)c3cc(C(=O)N4CCOCC4)ccc3n2)C(=O)c2ccccc21 [US20250091994, Example 87] | 2100 nM
CC(=O)N1CCN(c2cc(/C=C3/C(=O)c4ccccc4N3C(C)=O)nc3ccc(C(=O)N4CCOCC4)cc23)CC1 [US20250091994, Example 90] | 1400 nM
CC(=O)N1C(=Cc2cc(-c3ccc(Oc4ccccc4)cc3)c3cc(C(=O)N4CCOCC4)ccc3n2)C(=O)c2ccccc21 [US20250091994, Example 92] | 2800 nM
CC(=O)N1C(=Cc2cc(-c3cccnc3-c3ccccc3)c3cc(C(=O)N4CCOCC4)ccc3n2)C(=O)c2ccccc21 [US20250091994, Example 94] | 660 nM
COCC(O)CN1CCN(C(=O)c2ccc3nc(/C=C4/C(=O)c5ccccc5N4C(C)=O)cc(-c4ccccc4-c4ccccc4)c3c2)CC1 (configuration not stated) [US20250091994, Example 96] | 350 nM
CC(=O)N1C(=Cc2cc(-c3ccccc3-c3ccccc3)c3cc(C(=O)NC4CCN(C5COC5)CC4)ccc3n2)C(=O)c2ccccc21 [US20250091994, Example 97] | 510 nM
CC(=O)N1/C(=C/c2nc3cc(C(=O)N4CC(C)OC(C)C4)ccc3s2)C(=O)c2ccccc21 (configuration not stated) [US20250091994, Example 99] | 780 nM
CC(=O)N1/C(=C/c2nc3ccc(C(=O)N4CC(C)OC(C)C4)cc3s2)C(=O)c2ccccc21 (configuration not stated) [US20250091994, Example 101] | 780 nM
COc1cc(C=C2C(=O)c3ccc(F)cc3N2C(C)=O)ccc1OCC(=O)N1CCOCC1 [US20250091994, Example 103] | 10000 nM
COc1cc(C=C2C(=O)c3c(F)cccc3N2C(C)=O)ccc1OCC(=O)N1CCOCC1 [US20250091994, Example 104] | 9000 nM
